In patent US9663449B2, “Lipid containing formulations” (ARBUTUS BIOPHARMA CORPORATION, priority 2006, dated 2017):

System: Factor VII
Test: In vivo Factor VII silencing assay, serum Factor VII by chromogenic kit
Design: species or system C57BL/6 mice
Conditions: 2 mg/kg siRNA; FIG. 1; suggested, 5 tail and/or 6 tail, most abundant species in ND98 6:1 preparation
Procedure: Applicants have discovered that certain polyamine lipid moieties provide desirable properties for administration of nucleic acids, such as siRNA. For example, in some embodiments, a lipid moiety is complexed with a Factor VII-targeting siRNA and administered to an animal such as a mouse. The level of secreted serum Factor VII is then quantified (24 h post administration), where the degree of Factor VII silencing indicates the degree of in vivo siRNA delivery. Accordingly, lipids providing enhanced in vivo delivery of a nucleic acid such as siRNA are preferred. In particular, Applicants have discovered polyamines having substitutions described herein can have desirable properties for delivering siRNA, such as bioavailability, biodegradability, and tolerability.
C57BL/6 mice received tail vein injections of saline or various lipid formulations. Lipid-formulated siRNAs are administered at varying doses in an injection volume of 10 μL/g animal body weight. Twenty-four hours after administration, serum samples are collected by retroorbital bleed. Serum Factor VII concentrations are determined using a chromogenic diagnostic kit (Coaset Factor VII Assay Kit, DiaPharma) according to manufacturer protocols.
The effectiveness of lipid compositions can be tested by determining the relative ability of a lipid to deliver an siRNA moiety to a target. […]

SMILES: CCCCCCCCCCCCNC(=O)CCN(CCC(=O)NCCCCCCCCCCCC)CCN(CCC(=O)NCCCCCCCCCCCC)CCN(CCC(=O)NCCCCCCCCCCCC)CCN(CCC(=O)NCCCCCCCCCCCC)CCC(=O)NCCCCCCCCCCCC [Compound 5]
- FVII silencing, active lipid species: active species
